According to ChEMBL document CHEMBL1201862, “PubChem BioAssay data set” (2004):
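The compound was tested at five concentrations on cells cultured in 96-well plates, with a 48-hour exposure period. GI50 is the concentration that inhibits growth by half.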 Active and inactive are the calls of the source. Cut-off read from the data, not from the text of the source: active = GI50 up to about 1.1 µM and inactive = higher.

Key:
Test in all cases: growth of human tumour cells (NCI), 48 h
ACHN = tested on: ACHN
BT-549 = tested on: BT-549
DU-145 = tested on: DU-145
EKVX = tested on: EKVX
HCT-116 = tested on: HCT-116
HOP-62 = tested on: HOP-62
K562 = tested on: K562
MCF7 = tested on: MCF7
NCI/ADR-RES = tested on: NCI/ADR-RES
OVCAR-4 = tested on: OVCAR-4
OVCAR-5 = tested on: OVCAR-5
OVCAR-8 = tested on: OVCAR-8
PC-3 = tested on: PC-3
RXF 393 = tested on: RXF 393
SF-539 = tested on: SF-539
SN12C = tested on: SN12C
SR = tested on: SR
SW-620 = tested on: SW-620
A498 = tested on: A498
MDA-N = tested on: MDA-N

Measured: GI50

O=C1C=CC(=NNc2ccccc2)C=CC1=O
inactive: ACHN 8.05 µM | BT-549 19.4 µM | DU-145 18 µM | EKVX 25.9 µM | HCT-116 13.3 µM | HOP-62 10.8 µM | K562 7.64 µM | MCF7 19.3 µM | NCI/ADR-RES 11.6 µM | OVCAR-4 7.46 µM | OVCAR-5 20.8 µM | OVCAR-8 20.4 µM | PC-3 8.67 µM | RXF 393 99.8 µM | SF-539 16 µM | SN12C 16.7 µM | SR 1.72 µM | SW-620 6.58 µM

COc1c(-c2nc3ccc(N4CCN(C)CC4)nc3[nH]2)cc(OC)c2[nH]c(CO)nc12
inactive: A498 > 100 µM | ACHN > 100 µM | BT-549 > 100 µM | DU-145 > 100 µM | EKVX > 100 µM | HCT-116 54.7 µM | HOP-62 99.5 µM | K562 58.1 µM | MCF7 11.2 µM | MDA-N > 100 µM | NCI/ADR-RES > 100 µM | OVCAR-4 70 µM | OVCAR-5 > 100 µM | OVCAR-8 > 100 µM | RXF 393 > 100 µM | SF-539 22.5 µM | SN12C 53 µM | SR > 100 µM | SW-620 > 100 µM

CC(O[Si](C)(C)C(C)(C)C)[C@H](NC(=O)OCC(Cl)(Cl)Cl)C(=O)O (some centres not stated)
inactive: A498 > 100 µM | ACHN 55.1 µM | BT-549 > 100 µM | DU-145 > 100 µM | EKVX > 100 µM | HCT-116 > 100 µM | HOP-62 > 100 µM | K562 > 100 µM | MCF7 > 100 µM | NCI/ADR-RES > 100 µM | OVCAR-4 > 100 µM | OVCAR-5 > 100 µM | OVCAR-8 > 100 µM | PC-3 > 100 µM | RXF 393 > 100 µM | SF-539 > 100 µM | SN12C > 100 µM | SR > 100 µM | SW-620 > 100 µM

N#Cc1ccccc1NC(=O)/C(=N\NC(=O)c1ccncc1)C(c1cnc2ccc([N+](=O)[O-])cc2n1)[N+](=O)[O-] (configuration not stated)
inactive: A498 > 100 µM | ACHN 28 µM | BT-549 > 100 µM | EKVX 53.1 µM | HCT-116 > 100 µM | HOP-62 > 100 µM | MCF7 80.2 µM | MDA-N > 100 µM | NCI/ADR-RES > 100 µM | OVCAR-4 > 100 µM | OVCAR-5 > 100 µM | OVCAR-8 > 100 µM | PC-3 > 100 µM | RXF 393 > 100 µM | SF-539 > 100 µM | SN12C > 100 µM | SW-620 > 100 µM

CCN(CC)CCNc1n[n+]([O-])c2ccccc2[n+]1[O-]
inactive: ACHN 2.95 µM | BT-549 16.4 µM | DU-145 12.1 µM | EKVX 12.7 µM | HCT-116 7.73 µM | HOP-62 5.11 µM | K562 1.72 µM | MDA-N 9.73 µM | NCI/ADR-RES 22.9 µM | OVCAR-5 13.2 µM | OVCAR-8 7.76 µM | PC-3 5.78 µM | RXF 393 4.65 µM | SF-539 9.27 µM | SN12C 3.91 µM | SW-620 12 µM

ClCc1nc2ccccc2[nH]1
inactive: A498 > 100 µM | ACHN 85.1 µM | BT-549 42.8 µM | DU-145 > 100 µM | EKVX > 100 µM | HCT-116 > 100 µM | HOP-62 > 100 µM | K562 > 100 µM | MCF7 99.1 µM | NCI/ADR-RES > 100 µM | OVCAR-4 > 100 µM | OVCAR-5 > 100 µM | OVCAR-8 > 100 µM | PC-3 > 100 µM | RXF 393 > 100 µM | SF-539 > 100 µM | SN12C > 100 µM | SR 56 µM | SW-620 > 100 µM

CN(C)CC1CCC(CN(C)C)C(=O)C1=O (configuration not stated)
inactive: A498 16.8 µM | ACHN 4.85 µM | BT-549 8.67 µM | DU-145 16.5 µM | EKVX 17.3 µM | HCT-116 2.4 µM | HOP-62 20.1 µM | K562 2.27 µM | MCF7 2.46 µM | MDA-N > 10 µM | OVCAR-4 7.8 µM | OVCAR-5 16.5 µM | OVCAR-8 3.01 µM | PC-3 16.7 µM | RXF 393 1.82 µM | SF-539 7.18 µM | SN12C 18.4 µM | SR 2.09 µM | SW-620 1.83 µM
